Laboratory results reported in patent US20250002970A1, “A[…] LABELING FOR DETECTION OF BACTERIAL VIABILITY, GROWTH AND ANTIBIOTIC SUSCEPTIBILITY” (University of Massachusetts, priority 2021, published 2025).

System: S. aureus
Experiment: Sandwich ELISA readout of growth-dependent metabolic labeling (biotin-D-lysine probe incorporation) +/- antibiotic
Assay type: cell-based, Staphylococcus aureus
Settings: S. aureus +/- vancomycin; FIG. 4
Experimental: FIG. 4. ELISA can be used as a rapid readout for antibiotic susceptibility. S. aureus was incubated+/−antibiotic for 20 min then with cell envelope probe for an additional 10 min. Probe incorporation was quantitated by sandwich ELISA (absorbance, OD450).
Bacterial strains and growth conditions. Staphylococcus aureus was grown in brain heart infusion broth (BHI; BD BBL, Sparks, MD.). Escherichia coli K-12 was grown in Luria Bertani broth (LB; Apex Research Products, El Cajon, CA). All bacteria were initially grown by shaking at 37° C. overnight.
Cell wall labeling. Bacterial cultures were back diluted in their respective media and grown at 37° C. until the mid-log phase (OD600=0.3 for S. aureus; OD600=0.35 for E. coli); for concentration dependency experiments the starting OD600 for each sample varied. Where appropriate, cultures were treated with freshly prepared ampicillin (100 μg/mL; Fisher Bioreagents, Fair Lawn, NJ) or vancomycin (100 μg/mL; Alfa Aesar, Ward Hill, MA) and incubated on a shaker at 37° C. for 90 minutes.
Growing bacteria were labeled with biotin D-lysine (Chem-Impex International, Wood Dale, IL; reagent was deprotected first). Unless otherwise indicated, they were labeled with 1 mM biotin-D-lysine shaking at 37° C. for 20 (S. aureus) or 30 (E. coli) minutes. […]
ELISA experiment. […] The absorbance was measured at 450 nm with a BioTek Plate Reader.

CN[C@H](CC(C)C)C(=O)N[C@H]1C(=O)N[C@@H](CC(N)=O)C(=O)N[C@H]2C(=O)N[C@H]3C(=O)N[C@H](C(=O)N[C@H](C(=O)O)c4cc(O)cc(O)c4-c4cc3ccc4O)[C@H](O)c3ccc(c(Cl)c3)Oc3cc2cc(c3O[C@@H]2O[C@H](CO)[C@@H](O)[C@H](O)[C@H]2O[C@H]2C[C@](C)(N)[C@H](O)[C@H](C)O2)Oc2ccc(cc2Cl)[C@H]1O [vancomycin]
ELISA readout of probe incorporation (absorbance, OD450) with versus without antibiotic: can discriminate between S. aureus+/−vancomycin
